Assay results: patent US20220163532A1, “NUCLEAR-DERIVED EXOSOMES AND METHODS OF USE THEREOF” (Board of Regents, The University of Texas System, priority 2019, published 2022)

What was measured:
[1] = tested on: OVCAR-5 and OVCAR-8 cells; assay: MN quantification in ovarian cancer cells treated with genotoxic drugs (IF, Lamin A/C); type: cell-based, human; settings: topotecan 10 nM or olaparib 20 μM, vs DMSO
Experimental: IF experiments and MN quantification. Cells were plated at a density of 5×10^4 cells on sterile, 0.17-mm-thick coverslips (12-548-A, Thermo Fisher Scientific) placed at the bottom of six-well plates. The next day, cells were treated for 24 hours with either vehicle control dimethyl sulfoxide (DMSO; 1:1000 dilution; D2650, Sigma-Aldrich), 20 μM olaparib (O-9201, LC Laboratories), or 10 nM topotecan (T2705-50MG, Sigma-Aldrich). After 24 hours, the cells were washed with PBS and refed with the appropriate cell culture medium to grow for another 48 hours, for a total time of 72 hours after initial plating on the coverslips.
The drug-treated cells were first washed three times with PBS, fixed with 4% paraformaldehyde (PFA; 50-980-487, Thermo Fisher Scientific) diluted in PBS, and incubated at RT for 15 min with light rocking. […] Last, cells on coverslips were then washed four times with PBS and mounted on slides using ProLong Diamond Antifade Mountant (P36961, Thermo Fisher Scientific) and imaged with a Leica fluorescence microscope (Leica DM4000 M LED; Leica Microsystems) or an Andor Revolution XDi WD Spinning Disk Confocal microscope. For MN quantification, the number of MN in each 40× field was counted using 10 fields per sample. […]

[2] = tested on: OVCAR-5 ovarian cancer model; assay: MN quantification in tumor nodules of OVCAR-5 intraperitoneal model after topotecan; type: in vivo, mouse; settings: topotecan 7.5 mg/kg intraperitoneally, single dose, euthanized 48 hours later; vs vehicle control
Experimental: In vivo experiments. For the in vivo mouse experiments, female athymic (NCr-nude) mice were purchased from Taconic Biosciences. Mice were cared for in accordance with the American Association for Assessment and Accreditation of Laboratory Animal Care and the U.S. Public Health Service policy on Humane Care and Use of Laboratory Animals. All studies and experiments that were performed were supervised and approved by the MD Anderson Institutional Animal Care and Use Committee. Mice were 10 to 15 weeks old at the time of tumor intraperitoneal cell injections. OVCAR-5 luciferase—labeled cells (1×10^6) were injected intraperitoneally into each mouse. […]
Human tumor samples and MN quantification. […] For MN identification and quantification, the Vectra Polaris platform (PerkinElmer) was used, and inForm software (PerkinElmer) was used to systematically count MN. After tissue segmentation, a number of nuclei in views were calculated by the cell segmentation process, and MN was defined as over 0.85 roundness and less than approximately 3 μm size (95 pixels in 96 dpi images), as shown in FIG. 3D.
To validate these findings in vivo, the OVCAR-5 ovarian cancer model, which represents disseminated peritoneal disease, was used. […] To calculate the number of MN, multiple IF images of tumor slides were taken, and MN were systematically counted by the Vectra—inForm Image Analysis System (PerkinElmer) (FIG. 3D).

CC[C@@]1(O)C(=O)OCc2c1cc1n(c2=O)Cc2cc3c(CN(C)C)c(O)ccc3nc2-1 [topotecan]
number of MN [1]: increased significantly | MN-positive cell percentages in tumor [2]: trend toward an increased
